# Test results: US20250049777A1, “PHARMACEUTICALLY ACCEPTABLE SALT AND CRYSTALLINE FORM OF GLP-1 RECEPTOR AGONIST AND PREPARATION METHOD THEREFOR” (JIANGSU HENGRUI PHARMACEUTICALS CO., LTD., priority 2021, published 2025)
# Where a name gives a salt, the structure may show the parent alone. Read-outs that look alike come from different tables or passages of the source.
# Key:
# [1] = Hygroscopicity of crystal forms of salts (DVS, 25° C.); assay type: physicochemical
# Excerpt: According to the description of hygroscopic characteristics and the definition of hygroscopic weight gain in “9103 Guidelines for Hygroscopicity of Pharmaceuticals”, Chinese Pharmacopoeia, Volume IV, 2015 edition, the following are defined: • deliquescent: absorbing enough water to form a liquid; • extremely hygroscopic: having a hygroscopic weight gain of not less than 15%; • hygroscopic: having a hygroscopic weight gain of less than 15% and not less than 2%; • slightly hygroscopic: having a hygroscopic weight gain of less than 2% and not less than 0.2%; and • no or almost no hygroscopicity: having a hygroscopic weight gain of less than 0.2%.
# Surface Measurement Systems intrinsic DVS was used at 25° C. The observed humidity ranged from 0% to 95%. The step was 10%. The criterion was that the mass change dM/dT for each step was less than 0.002%. TMAX was 360 min. Two cycles were carried out.
# [2] = assay type: physicochemical; settings: for Crystal form: sealed aluminum foil bag
# Protocol: A salt-type sample was sealed with an aluminum foil bag and placed under the conditions of 25° C./60% RH and 40° C./75% RH, respectively, to investigate the stability.
# [3] = Stability of crystal forms of salts under influencing factors (illumination, high temperature, high humidity); assay type: physicochemical
# Excerpt: The sampling and investigation period was 30 days.
# [4] = Illumination (4500 Lux), 7 days, open
# [5] = Illumination (4500 Lux), 14 days, open
# [6] = Illumination (4500 Lux), 30 days, open
smiles,measurement,setting,value
"O=C(O)c1ccc2nc(CN3CCC(c4cccc5c4O[C@@H](c4ccc(Cl)cc4F)CO5)CC3)n(C[C@@H]3CCO3)c2c1 [Crystal form A of tromethamine salt, 2-((4-((S)-3-(4-chloro-2-fluorophenyl)-2,3-dihydrobenzo[b][1,4]dioxan-5-yl)piperidin-1-yl)methyl)-1-(((S)-oxetan-2-yl)methyl)-1H-benzo[d]imidazole-6-carboxylic acid]",hygroscopic weight gain 0.0% RH to 80.0% RH,[1],5.02%
same,Crystal form after DVS,[1]; 0% to 95% RH,Unchanged
same,physical and chemical stability,[2],good physical and chemical stability
same,Crystal form,[2]; 25° C./60% RH,Unchanged
same,Crystal form,[2]; 40° C./75% RH,Unchanged
same,chemical stability,[3],slightly poor chemical stability
same,% Purity,"[3]; 40° C., 7 days, open",96.1%
same,Crystal form,"[3]; 40° C., 7 days, open",Unchanged
same,% Purity,"[3]; 40° C., 14 days, open",91.7%
same,Crystal form,"[3]; 40° C., 14 days, open",Unchanged
same,% Purity,"[3]; 40° C., 30 days, open",87.4%
same,Crystal form,"[3]; 40° C., 30 days, open",Unchanged
same,% Purity,"[3]; 60° C., 7 days, open",93.5%
same,Crystal form,"[3]; 60° C., 7 days, open",Unchanged
same,% Purity,"[3]; 60° C., 14 days, open",88.6%
same,Crystal form,"[3]; 60° C., 14 days, open",Unchanged
same,% Purity,"[3]; 75% RH, 7 days, open",99.4%
same,Crystal form,"[3]; 75% RH, 7 days, open",Unchanged
same,% Purity,"[3]; 75% RH, 14 days, open",99.4%
same,Crystal form,"[3]; 75% RH, 14 days, open",Unchanged
same,% Purity,"[3]; 75% RH, 30 days, open",99.3%
same,Crystal form,"[3]; 75% RH, 30 days, open",Unchanged
same,% Purity,"[3]; 92.5% RH, 7 days, open",99.3%
same,Crystal form,"[3]; 92.5% RH, 7 days, open",Unchanged
same,% Purity,"[3]; 92.5% RH, 14 days, open",99.0%
same,Crystal form,"[3]; 92.5% RH, 14 days, open",Unchanged
same,% Purity,"[3]; 92.5% RH, 30 days, open",98.6%
same,Crystal form,"[3]; 92.5% RH, 30 days, open",Unchanged
same,% Purity,[3]; [4],98.9%
same,Crystal form,[3]; [4],Unchanged
same,% Purity,[3]; [5],97.6%
same,Crystal form,[3]; [5],Unchanged
same,% Purity,[3]; [6],90.8%
same,Crystal form,[3]; [6],Unchanged
same,% Purity,"[3]; Initial condition, 0 days",99.5%
